PubChem BioAssay AID248 (DTP/NCI, 2004)
Several values for one entry are separate records, joined by “and”; a condition that tells them apart may be missing. Equal entries are not always repeated. Toxic doses and inconclusive results are not listed. No stated cut-off is given here; in the data, active means T/C of 150% or more; inactive means T/C below 125%.

Test system: L1210 leukemia ip in BDF1 mice, survival T/C
Assay: NCI In Vivo Anticancer Drug Screen. Data for tumor model L1210 Leukemia (intraperitoneal) in B6D2F1 (BDF1) mice
Conditions: endpoint: mean survival time, higher = longer survival
Outline: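 Transplanted-tumor mice were given test agent; controls received vehicle only. Survival readings from the two groups were divided (treated over control).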

[1] = dose: 100.0 mg/kg/injection, schedule: Q01DX001 (ip), vehicle: saline
[2] = dose: 100.0 mg/kg/injection, schedule: Q01DX009 (ip), vehicle: Klucel (hydroxypropylcellulose) (HPC)
[3] = dose: 100.0 mg/kg/injection, schedule: Q04DX003 (ip), vehicle: Klucel (hydroxypropylcellulose) (HPC)
[4] = dose: 200.0 mg/kg/injection, schedule: Q01DX001 (ip), vehicle: saline
[5] = dose: 200.0 mg/kg/injection, schedule: Q01DX009 (ip), vehicle: Klucel (hydroxypropylcellulose) (HPC)
[6] = dose: 200.0 mg/kg/injection, schedule: Q04DX003 (ip), vehicle: Klucel (hydroxypropylcellulose) (HPC)
[7] = dose: 400.0 mg/kg/injection, schedule: Q01DX001 (ip), vehicle: saline
[8] = dose: 400.0 mg/kg/injection, schedule: Q01DX009 (ip), vehicle: Klucel (hydroxypropylcellulose) (HPC)
[9] = dose: 400.0 mg/kg/injection, schedule: Q04DX003 (ip), vehicle: Klucel (hydroxypropylcellulose) (HPC)
[10] = dose: 100.0 mg/kg/injection, schedule: Q01DX001 (ip), vehicle: Klucel (hydroxypropylcellulose) (HPC)

Measured: T/C

COc1ccc(OC)c([N+](=O)[O-])c1
inactive: [1] 100 % of control | [2] 100 % of control | [3] 93 % of control | [4] 105 % of control | [5] 94 % of control | [6] 95 % of control | [7] 96 % of control | [8] 88 % of control | [9] 93 % of control

COc1ccc2c(c1)CN(S(=O)(=O)c1ccc(C)cc1)CCC2=O
inactive: dose: 100.0 mg/kg/injection, schedule: Q01DX009 (ip), vehicle: saline 102 % of control | dose: 200.0 mg/kg/injection, schedule: Q01DX009 (ip), vehicle: saline 98 % of control | dose: 400.0 mg/kg/injection, schedule: Q01DX009 (ip), vehicle: saline 95 % of control

COc1c2c(c(OC)c3c(=O)c4ccccc4[nH]c13)OCO2
inactive: dose: 62.5 mg/kg/injection, schedule: Q01DX001 (ip), vehicle: carboxymethylcellulose (CMC) 100 % of control | dose: 125.0 mg/kg/injection, schedule: Q01DX001 (ip), vehicle: carboxymethylcellulose (CMC) 97 % of control | dose: 250.0 mg/kg/injection, schedule: Q01DX001 (ip), vehicle: carboxymethylcellulose (CMC) 105 % of control | dose: 500.0 mg/kg/injection, schedule: Q01DX001 (ip), vehicle: carboxymethylcellulose (CMC) 97 % of control

CCCCCC/C=C/C#CCCCCCCCC(=O)O
inactive: dose: 37.5 mg/kg/injection, schedule: Q01DX009 (ip), vehicle: Klucel (hydroxypropylcellulose) (HPC) 105 % of control | dose: 75.0 mg/kg/injection, schedule: Q01DX009 (ip), vehicle: Klucel (hydroxypropylcellulose) (HPC) 98 % of control | dose: 150.0 mg/kg/injection, schedule: Q01DX009 (ip), vehicle: Klucel (hydroxypropylcellulose) (HPC) 102 % of control

C=CCSCCC=O
inactive: dose: 25.0 mg/kg/injection, schedule: Q01DX001 (ip), vehicle: Klucel (hydroxypropylcellulose) (HPC) 100 % of control | dose: 50.0 mg/kg/injection, schedule: Q01DX001 (ip), vehicle: Klucel (hydroxypropylcellulose) (HPC) 102 % of control | [10] 102 % of control

COC1=CCC2=C(CCO2)C1
inactive: dose: 100.0 mg/kg/injection, schedule: Q04DX003 (ip), vehicle: acetone 95 % of control | dose: 200.0 mg/kg/injection, schedule: Q04DX003 (ip), vehicle: acetone 95 % of control | dose: 400.0 mg/kg/injection, schedule: Q04DX003 (ip), vehicle: acetone 96 % of control

CCCN(CCC)c1ccc(SC#N)cc1
inactive: [1] 98 % of control | [4] 95 % of control

CCCCCCCCCCCCCCCCN(C)c1ccc([N+](=O)[O-])cc1
inactive: [3] 94 % of control | [6] 96 % of control | [9] 96 % of control

Cc1nc2ccccc2c(=O)n1N
inactive: [1] 111 % of control | [4] 105 % of control

C(=N\Nc1nnc(N/N=C/c2cccc3ccccc23)c2ccccc12)/c1cccc2ccccc12
inactive: dose: 50.0 mg/kg/injection, schedule: Q01DX001 (ip), vehicle: saline 92 % of control | [1] 92 % of control | [4] 92 % of control | [7] 92 % of control

C#CCOCC(O)C[As](=O)(O)c1cccc(Cl)c1 (stereo not drawn)
inactive: dose: 1.56 mg/kg/injection, schedule: Q04DX003 (ip), vehicle: saline with Tween-80 92 % of control | dose: 3.13 mg/kg/injection, schedule: Q04DX003 (ip), vehicle: saline with Tween-80 104 % of control | dose: 6.25 mg/kg/injection, schedule: Q04DX003 (ip), vehicle: saline with Tween-80 104 % of control

O=c1[nH]c(=O)c2nc3ccccc3nc2[nH]1
inactive: [2] 100 % of control | [5] 94 % of control | [8] 93 % of control

O=S(=O)(C(Cl)Cl)C(Cl)(Cl)S(=O)(=O)C(Cl)Cl
inactive: dose: 25.0 mg/kg/injection, schedule: Q01DX009 (ip), vehicle: Klucel (hydroxypropylcellulose) (HPC) 96 % of control | dose: 50.0 mg/kg/injection, schedule: Q01DX009 (ip), vehicle: Klucel (hydroxypropylcellulose) (HPC) 102 % of control | [2] 94 % of control and 90 % of control

O=S(=O)(O)CC(NCc1ccccc1)c1ccccc1 (stereo not drawn)
inactive: dose: 100.0 mg/kg/injection, schedule: Q04DX003 (ip), vehicle: other 100 % of control | dose: 200.0 mg/kg/injection, schedule: Q04DX003 (ip), vehicle: other 97 % of control | dose: 400.0 mg/kg/injection, schedule: Q04DX003 (ip), vehicle: other 94 % of control

S=c1[nH]c(-c2ccccc2)cs1
inactive: dose: 50.0 mg/kg/injection, schedule: Q01DX001 (ip), vehicle: other 90 % of control | [10] 96 % of control | dose: 100.0 mg/kg/injection, schedule: Q01DX001 (ip), vehicle: other 96 % of control | [2] 96 % of control | dose: 200.0 mg/kg/injection, schedule: Q01DX001 (ip), vehicle: Klucel (hydroxypropylcellulose) (HPC) 95 % of control | dose: 200.0 mg/kg/injection, schedule: Q01DX001 (ip), vehicle: other 100 % of control | [5] 96 % of control | dose: 400.0 mg/kg/injection, schedule: Q01DX001 (ip), vehicle: Klucel (hydroxypropylcellulose) (HPC) 95 % of control | dose: 400.0 mg/kg/injection, schedule: Q01DX001 (ip), vehicle: other 96 % of control | [8] 97 % of control
